US7585517B2, “Transscleral delivery” (Macusight, Inc., priority 2003, dated 2009)
Read-outs that look alike come from different tables or passages of the source.

How the values were obtained:
human sclera = test: Two chamber Ussing type permeability apparatus, transscleral rapamycin delivery; assay type: in vitro ADME; conditions: for rapamycin held by the sclera at the conclusion of the experiment: 36 hours; for total rapamycin recovered from the uveal chamber: in 36 hours
Protocol: (§1) Prior to testing of sclera, loss of therapeutic agent to the glass walls of the experimental apparatus was evaluated. For the evaluation of loss of drug to the experimental apparatus, the uveal and orbital chambers were exposed to a 2 μg/mL rapamycin solution in balanced salt solution.
(§2) A 7 mm disk of fresh donor human sclera was used to separate the two chambers of the Ussing permeability apparatus. The two sides of the sclera were denoted “orbital” to represent the outer surface and “uveal” to represent the internal surface. […] Thus, in order to grossly replicate a scleral depot delivery system, the hydrophobic therapeutic agent solvents were diluted to 5% concentration in balanced salt solution (BSS) with dissolved rapamycin to form a roughly 100 μg per ml orbital chamber solution. In this example, the chamber on the orbital surface side contained a reservoir of 200 μl of rapamycin dissolved in 5% DMSO in BSS at an expected concentration of 100 μg per milliliter. The 500 μl uveal chamber was continually perfused at 0.0075 milliliter per minute and samples were collected by a fractionater in Eppendorf tubes every 4 hours. The experiment was run for 36 hours.
(§3) At the peak concentrations in the uveal chamber (250 ng/ml), rapamycin will fully dissolve in vitreous. Because the amount of therapeutic agent in the orbital chamber was declining, the steady state was estimated by the highest flux. […] A permeability coefficient (K) was calculated as:
(§4) [formula] ΔC represents the increase in concentration the compound in the uveal chamber (0.250 micrograms/ml) that occurs over the interval t, in seconds ([…]). V is the chamber volume (1.8 milliliter). A represents the exposed area of the tissue (0.385 cm^2). C0 is the initial concentration of the compound in the orbital chamber (92 microgram/ml). Calculated in this manner, the permeability coefficient, K, has the dimensions of cm/s. KTRANS thus expresses the rate at which a given solute traverses the tissue. (Advanced Therapeutic agent Delivery Reviews 52 (2001) 37-48 by Dale Geroski and Hank Edelhauser, which is incorporated herein by reference in its entirety). For this experiment KTRANS was roughly 8.82×10^−6 cm/sec, which was on the order of predictions based on MW. Comparatively, when evaluating the KTRANS of dexamethasone, which is smaller than rapamycin, and adjusting for a lower solubility, the figures for rapamycin are also in the appropriate predicted ranges. It is expected that as the external concentration of rapamycin is raised, the flux will increase. Under the ex-vivo conditions of this example, rapamycin can be delivered in the single digit micrograms per day to the vitreous. Such rates are consistent with therapeutic local tissue levels and support that rapamycin is a viable therapeutic agent for transscleral delivery to the posterior segment for vitreoretinal disease. Transscleral Rapamycin Delivery—Methanol Solution
(§5) The above procedure was followed with the exception that rapamycin was dissolved in 5% methanol in BSS. The time profile of the concentration of rapamycin in the uveal chamber is depicted in FIG. 3 (circles). The peak concentration in the uveal chamber was 271 ng/ml at t=12 to 16 hours. The total amount of rapamycin accumulated on the uveal side of the sclera is depicted as function of time in FIG. 4 (squares). The total rapamycin recovered from the uveal chamber was 3.44 micrograms in 36 hours.

[1] = as above; assay type: in vitro ADME, human; conditions: human
Protocol: as §1, §2, §3, §4, §5

Solubility of rapamycin = assay type: physicochemical
[2] = Retinal tissue and blood levels of rapamycin after periocular injection (HPLC/MS); assay type: in vivo; conditions: mice
Protocol: (§6) CNV may be induced by rupturing Bruch's membrane with laser. Fifteen mice were given daily periocular injections of 5 micrograms of rapamycin in corn oil vehicle in one eye. After two days of treatment, Bruch's membrane was ruptured by laser at three sites in each eye. The fellow eye served as control and was treated with periocular injections of corn oil only. Two weeks after laser rupture, 10 mice were perfused with fluorescein-labeled dextran and CNV areas were measured in each eye on choroidal flat mounts. The remaining mice had retinas and RPE/choroid dissected and stored at −70° C. for tissue therapeutic agents level measurement.

laser induced CNV [3] = test: Inhibition of laser induced CNV by periocular rapamycin (Example 1); assay type: in vivo; conditions: mice; daily periocular injections of 5 micrograms in corn oil, begun two days before laser rupture; two weeks after laser; SD 0.00197
Protocol: as §6

laser induced CNV [4] = test: Reversal of laser induced CNV by periocular rapamycin (Example 2); assay type: in vivo; conditions: mice; daily periocular 5 μg in 5 μl corn oil started one week after laser, for one week; SD 0.0053
Protocol: Fifteen mice had Bruch's membrane ruptured with laser photocoagulation at 3 locations in each eye. After one week, 5 mice were perfused with fluorescein-labeled dextran and the baseline area of CNV was measured in each eye. At that point, the remaining mice were started on daily periocular injections of 5 μl of corn oil containing 5 μg of rapamycin in one eye and corn oil alone in the fellow eye. After one more week, the mice were perfused with fluorescein-labeled dextran and CNV areas were measured in each eye on choroidal flat mounts. The corn oil solution used is approximately a saturated solution. It is expected that lower doses will be used to deliver therapeutically effective amounts of rapamycin.
Baseline lesion CNV area was 0.0105 mm^2 with a standard deviation of 0.0037.

- time of peak concentration in the uveal chamber (human sclera; 5% DMSO in BSS): 8 to 12 h
- peak concentration in the uveal chamber (human sclera; 5% DMSO in BSS, about 100 μg per ml orbital chamber): 250 ng/mL
- rapamycin held by the sclera at the conclusion of the experiment (human sclera; 5% DMSO in BSS): 0.57 micrograms
- total rapamycin recovered from the uveal chamber (human sclera; 5% DMSO in BSS): 2.67 micrograms
- peak concentration in the uveal chamber (human sclera; 5% methanol in BSS): 271 ng/mL
- time of peak concentration in the uveal chamber (human sclera; 5% methanol in BSS): 12 to 16 h
- rapamycin held by the sclera at the conclusion of the experiment (human sclera; 5% methanol in BSS): 0.41 micrograms
- total rapamycin recovered from the uveal chamber (human sclera; 5% methanol in BSS): 3.44 micrograms
- Papp at 36 h, 92 μg/mL ([1]; 5% DMSO in BSS, read-out: permeability coefficient KTRANS): ~88.2 nm/s
- Papp at 36 h, 100 μg/mL ([1]; 5% methanol in BSS, read-out: permeability coefficient KTRANS): 95.6 nm/s
- Papp at 36 h, 100 μg/mL ([1]; ex-vivo human scleral tissue, order of magnitude, summary of Example 3, read-out: permeability of human sclera to rapamycin): ~100 nm/s
- solubility in aqueous solutions (Solubility of rapamycin): poorly soluble
- rapamycin blood levels ([2]; periocular 5 μg per day): 5.57 nanograms per milligram blood
- retinal tissue levels of rapamycin, treated eyes ([2]; periocular 5 μg per day, HPLC/MS): 25 picograms per milligram tissue
- retinal tissue levels of rapamycin, fellow control eyes ([2]; untreated fellow eye of animals given periocular 5 μg per day in the other eye): 7 picograms per milligram tissue
Compound: CO[C@H]1C[C@@H]2CC[C@@H](C)[C@@](O)(O2)C(=O)C(=O)N2CCCC[C@H]2C(=O)O[C@H]([C@H](C)C[C@@H]2CC[C@@H](O)[C@H](OC)C2)CC(=O)[C@H](C)/C=C(\C)[C@@H](O)[C@@H](OC)C(=O)[C@H](C)C[C@H](C)/C=C/C=C/C=C/1C [rapamycin]
- highest flux (human sclera; 5% DMSO in BSS, taken as estimate of steady state): 9.35 micrograms per square centimeter per day
- mean CNV area, rapamycin treated eyes (laser induced CNV [3]): 0.00381 mm^2
- CNV area, treated eyes (laser induced CNV [4]): 0.00458 mm^2
